Assay results reported in US11939314B2, “Quinolin-2-one derivatives” (MERCK PATENT GMBH, priority 2016, dated 2024).

Assays:
c-Kit(V654A) = target: T1, c-Kit(V654A) (Homo sapiens, UniProt P10721, V654A); test: c-Kit(V654A) assay; assay type: biochemical; conditions: recombinant human c-Kit aa 544-end, 200 μM ATP, 1.4E-06 means 1.4×10^−6, read-out: Inhibition (IC50) of c-KIT (V654A)
T1 construct: amino acids 544-end containing the V654A mutation; GST (N)
How it was run: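 Radiometric filter-binding read-out: substrate 33P incorporation counted by scintillation after P30 filtermat washes in 75 mM phosphoric acid and methanol. Enzyme: N-GST recombinant human c-Kit aa 544-end carrying V654A.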

PDGFRalpha(V561D) = target: T2, PDGFRalpha(V561D) (Homo sapiens, UniProt P16234, V561D); test: PDGFRalpha(V561D) assay; assay type: biochemical; conditions: recombinant human PDGFRalpha aa 550-end, 200 μM ATP, 1.4E-06 means 1.4×10^−6, read-out: Inhibition (IC50) of PDGFRα (V561D)
T2 construct: recombinant human PDGFRalpha, amino acids 550end containing the V561 D mutation; 6His (N)
How it was run: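 Radiometric filter-binding assay: substrate phosphorylation by recombinant N-His-tagged human PDGFRα 550-end V561D was quenched with 3% phosphoric acid after 40 min at room temperature, then counted.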

T1 sequence (P10721 544-976 V654A): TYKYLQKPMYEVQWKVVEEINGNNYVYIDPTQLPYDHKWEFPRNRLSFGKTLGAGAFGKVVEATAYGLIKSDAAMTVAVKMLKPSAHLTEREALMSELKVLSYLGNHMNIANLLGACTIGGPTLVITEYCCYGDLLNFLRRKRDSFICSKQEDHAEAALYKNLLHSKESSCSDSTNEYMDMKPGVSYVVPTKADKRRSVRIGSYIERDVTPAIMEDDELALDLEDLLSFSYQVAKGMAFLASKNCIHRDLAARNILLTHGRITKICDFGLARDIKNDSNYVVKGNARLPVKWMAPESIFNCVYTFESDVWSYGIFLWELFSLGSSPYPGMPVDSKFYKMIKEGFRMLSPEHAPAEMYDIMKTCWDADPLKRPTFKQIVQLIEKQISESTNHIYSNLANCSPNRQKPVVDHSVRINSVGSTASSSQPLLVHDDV
T2 sequence (P16234 550-1089 V561D): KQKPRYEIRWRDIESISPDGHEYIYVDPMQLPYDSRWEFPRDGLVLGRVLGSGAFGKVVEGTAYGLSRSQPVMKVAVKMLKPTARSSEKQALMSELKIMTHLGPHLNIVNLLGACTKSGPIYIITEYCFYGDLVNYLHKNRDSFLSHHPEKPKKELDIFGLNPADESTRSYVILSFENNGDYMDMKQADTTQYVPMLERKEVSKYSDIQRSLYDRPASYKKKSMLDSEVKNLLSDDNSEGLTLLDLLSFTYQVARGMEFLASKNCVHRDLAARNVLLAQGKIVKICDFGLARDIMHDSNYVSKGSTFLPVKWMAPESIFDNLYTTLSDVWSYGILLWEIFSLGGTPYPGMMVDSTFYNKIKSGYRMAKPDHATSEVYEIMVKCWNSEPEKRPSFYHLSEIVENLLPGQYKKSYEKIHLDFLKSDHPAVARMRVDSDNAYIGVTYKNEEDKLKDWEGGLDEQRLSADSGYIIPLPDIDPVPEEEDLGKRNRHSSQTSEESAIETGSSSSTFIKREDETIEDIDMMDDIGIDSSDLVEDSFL

Structure (SMILES) | IC50 (c-Kit(V654A)) | IC50 (PDGFRalpha(V561D))
CCN(CC)CC1CCN(C(=O)c2ccc(-n3cc(-c4cc5cc(F)c(F)cc5[nH]c4=O)nn3)cc2)C1 (centres unmarked) [A239, 3-{1-[4-(3-diethylaminomethyl-pyrrolidine-1-carbonyl)-phenyl]-1H-[1,2,3]triazol-4-yl}-6,7-difluoro-1H-quinolin-2-one] | 330 nM | 1200 nM
CC(=O)N1C[C@@H]2[C@H](C1)[C@H]2NC(=O)c1ccc(-n2cc(-c3cc4cc(F)ccc4[nH]c3=O)nn2)cc1 [A240, N-(3-acetyl-3-aza-bicyclo[3.1.0]hex-6-yl)-4-[4-(6-fluoro-2-oxo-1,2-dihydro-quinolin-3-yl)-[1,2,3]triazol-1-yl]-benzamide] | 130 nM | 250 nM
CO[C@@H]1C[C@@H](CO)N(C(=O)c2ccc(-n3cc(-c4cc5cc(F)ccc5[nH]c4=O)nn3)cc2)C1 [A241, 6-fluoro-3-{1-[4-((2S,4R)-2-hydroxymethyl-4-methoxy-pyrrolidine-1-carbonyl)-phenyl]-1H-[1,2,3]triazol-4-yl}-1H-quinolin-2-one] | 100 nM | 290 nM
NC(=O)[C@@H]1CCCN1C(=O)c1ccc(-n2cc(-c3cc4cc(F)ccc4[nH]c3=O)nn2)cc1 [A242, (S)-1-{4-[4-(6-fluoro-2-oxo-1,2-dihydro-quinolin-3-yl)-[1,2,3]triazol-1-yl]-benzoyl}-pyrrolidine-2-carboxylic acid amide] | 11 nM | 17 nM
CO[C@@H]1C[C@H](CO)N(C(=O)c2ccc(-n3cc(-c4cc5cc(F)ccc5[nH]c4=O)nn3)cc2)C1 [A244, 6-fluoro-3-{1-[4-((2R,4R)-2-hydroxymethyl-4-methoxy-pyrrolidine-1-carbonyl)-phenyl]-1H-[1,2,3]triazol-4-yl}-1H-quinolin-2-one] | 36 nM | 13 nM
O=C(c1ccc(-n2cc(-c3cc4cc(F)ccc4[nH]c3=O)nn2)cc1)N1CCCCC12COC2 [A245, 6-fluoro-3-{1-[4-(2-oxa-5-aza-spiro[3.5]nonane-5-carbonyl)-phenyl]-1H-[1,2,3]triazol-4-yl}-1H-quinolin-2-one] | 65 nM | 470 nM
O=C(c1ccc(-n2cc(-c3cc4cc(Cl)ccc4[nH]c3=O)nn2)cc1)N1CCC[C@H]1CO [A246, 6-chloro-3-{1-[4-((S)-2-hydroxymethyl-pyrrolidine-1-carbonyl)-phenyl]-1H-[1,2,3]triazol-4-yl}-1H-quinolin-2-one] | 23 nM | 7.4 nM
CO[C@@H]1C[C@H](CO)N(C(=O)c2ccc(-n3cc(-c4cc5cc(Cl)ccc5[nH]c4=O)nn3)cc2)C1 [A247, 6-chloro-3-{1-[4-((2R,4R)-2-hydroxymethyl-4-methoxy-pyrrolidine-1-carbonyl)-phenyl]-1H-[1,2,3]triazol-4-yl}-1H-quinolin-2-one] | 23 nM | 45 nM
CO[C@@H]1C[C@@H](CO)N(C(=O)c2ccc(-n3cc(-c4cc5cc(Cl)ccc5[nH]c4=O)nn3)cc2)C1 [A248, 6-chloro-3-{1-[4-((2S,4R)-2-hydroxymethyl-4-methoxy-pyrrolidine-1-carbonyl)-phenyl]-1H-[1,2,3]triazol-4-yl}-1H-quinolin-2-one] | 35 nM | 45 nM
O=C(c1ccc(-n2cc(-c3cc4cc(Cl)ccc4[nH]c3=O)nn2)cc1)N1CCC(N2CCC(O)CC2)C1 (centres unmarked) [A249, 6-chloro-3-(1-{4-[3-(4-hydroxy-piperidin-1-yl)-pyrrolidine-1-carbonyl]-phenyl}-1H-[1,2,3]triazol-4-yl)-1H-quinolin-2-one] | 35 nM | 260 nM
O=C(c1ccc(-n2cc(-c3cc4cc(Cl)ccc4[nH]c3=O)nn2)cc1)N1CCN(C2COC2)CC1 [A250, 6-chloro-3-{1-[4-(4-oxetan-3-yl-piperazine-1-carbonyl)-phenyl]-1H-[1,2,3]triazol-4-yl}-1H-quinolin-2-one] | 40 nM | 76 nM
COC[C@@H]1CCCN1C(=O)c1ccc(-n2cc(-c3cc4cc(Cl)ccc4[nH]c3=O)nn2)cc1 [A253, 6-chloro-3-{1-[4-((S)-2-methoxymethyl-pyrrolidine-1-carbonyl)-phenyl]-1H-[1,2,3]triazol-4-yl}-1H-quinolin-2-one] | 44 nM | 21 nM
CN(C)C1CCN(C(=O)c2ccc(-n3cc(-c4cc5cc(Cl)ccc5[nH]c4=O)nn3)cc2)C1 (centres unmarked) [A254, 6-chloro-3-{1-[4-(3-dimethylamino-pyrrolidine-1-carbonyl)-phenyl]-1H-[1,2,3]triazol-4-yl}-1H-quinolin-2-one] | 57 nM | 24 nM
O=C(c1ccc(-n2cc(-c3cc4cc(Cl)ccc4[nH]c3=O)nn2)cc1)N1CCCCC1CO (centres unmarked) [A255, 6-chloro-3-{1-[4-(2-hydroxymethyl-piperidine-1-carbonyl)-phenyl]-1H-[1,2,3]triazol-4-yl}-1H-quinolin-2-one] | 22 nM | 2.6 nM
O=C(c1ccc(-n2cc(-c3cc4cc(Cl)ccc4[nH]c3=O)nn2)cc1)N1CCC2(CC1)COC2 [A256, 6-chloro-3-{1-[4-(2-oxa-7-aza-spiro[3.5]nonane-7-carbonyl)-phenyl]-1H-[1,2,3]triazol-4-yl}-1H-quinolin-2-one] | 27 nM | 4.3 nM
O=C(c1ccc(-n2cc(-c3cc4cc(Cl)ccc4[nH]c3=O)nn2)cc1)N1CCC2(COC2)C1 [A257, 6-chloro-3-{1-[4-(2-oxa-6-aza-spiro[3.4]octane-6-carbonyl)-phenyl]-1H-[1,2,3]triazol-4-yl}-1H-quinolin-2-one] | 27 nM | 3.7 nM
O=C(c1ccc(-n2cc(-c3cc4cc(Cl)ccc4[nH]c3=O)nn2)cc1)N1CC2(COC2)C1 [A258, 6-chloro-3-{1-[4-(2-oxa-6-aza-spiro[3.3]heptane-6-carbonyl)-phenyl]-1H-[1,2,3]triazol-4-yl}-1H-quinolin-2-one] | 47 nM | 86 nM
NC(=O)[C@H]1CCCN1C(=O)c1ccc(-n2cc(-c3cc4cc(F)ccc4[nH]c3=O)nn2)cc1 [A262, (R)-1-{4-[4-(6-fluoro-2-oxo-1,2-dihydro-quinolin-3-yl)-[1,2,3]triazol-1-yl]-benzoyl}-pyrrolidine-2-carboxylic acid amide] | 94 nM | 110 nM

Now from value to compound:

IC50 (c-Kit(V654A)) | IC50 (PDGFRalpha(V561D)) | Structure (SMILES)
30 nM | 14 nM | NC(=O)[C@H]1CCN(C(=O)c2ccc(-n3cc(-c4cc5cc(F)ccc5[nH]c4=O)nn3)cc2)C1 [A243, (S)-1-{4-[4-(6-fluoro-2-oxo-1,2-dihydro-quinolin-3-yl)-[1,2,3]triazol-1-yl]-benzoyl}-pyrrolidine-3-carboxylic acid amide]
160 nM | 400 nM | COCCO[C@H]1CCN(C(=O)c2ccc(-n3cc(-c4cc5cc(F)ccc5[nH]c4=O)nn3)cc2)C1 [A251, 6-fluoro-3-(1-{4-[(S)-3-(2-methoxy-ethoxy)-pyrrolidine-1-carbonyl]-phenyl}-1H-[1,2,3]triazol-4-yl)-1H-quinolin-2-one]
98 nM | 93 nM | COCCO[C@@H]1CCN(C(=O)c2ccc(-n3cc(-c4cc5cc(F)ccc5[nH]c4=O)nn3)cc2)C1 [A252, 6-fluoro-3-(1-{4-[(R)-3-(2-methoxy-ethoxy)-pyrrolidine-1-carbonyl]-phenyl}-1H-[1,2,3]triazol-4-yl)-1H-quinolin-2-one]
57 nM | 8.4 nM | COCCO[C@H]1CCN(C(=O)c2ccc(-n3cc(-c4cc5cc(Cl)ccc5[nH]c4=O)nn3)cc2)C1 [A259, 6-chloro-3-(1-{4-[(S)-3-(2-methoxy-ethoxy)-pyrrolidine-1-carbonyl]-phenyl}-1H-[1,2,3]triazol-4-yl)-1H-quinolin-2-one]
51 nM | 100 nM | COCCO[C@@H]1CCN(C(=O)c2ccc(-n3cc(-c4cc5cc(Cl)ccc5[nH]c4=O)nn3)cc2)C1 [A260, 6-chloro-3-(1-{4-[(R)-3-(2-methoxy-ethoxy)-pyrrolidine-1-carbonyl]-phenyl}-1H-[1,2,3]triazol-4-yl)-1H-quinolin-2-one]
44 nM | 37 nM | COCCO[C@@H]1CCN(C(=O)c2ccc(-n3cc(-c4cc5cc(F)ccc5[nH]c4=O)cn3)cc2)C1 [A261, 6-fluoro-3-(1-{4-[(R)-3-(2-methoxy-ethoxy)-pyrrolidine-1-carbonyl]-phenyl}-1H-pyrazol-4-yl)-1H-quinolin-2-one]
94 nM | 0.91 nM | CO[C@@H]1CN(C(=O)c2ccc(-n3cc(-c4cc5cc(F)ccc5[nH]c4=O)nn3)cc2)C[C@H]1OC [A263, 3-{1-[4-((3R,4R)-3,4-dimethoxy-pyrrolidine-1-carbonyl)-phenyl]-1H-[1,2,3]triazol-4-yl}-6-fluoro-1H-quinolin-2-one]
75 nM | 1.2 nM | CO[C@H]1CN(C(=O)c2ccc(-n3cc(-c4cc5cc(F)ccc5[nH]c4=O)nn3)cc2)C[C@@H]1OC [A264, 3-{1-[4-((3S,4S)-3,4-dimethoxy-pyrrolidine-1-carbonyl)-phenyl]-1H-[1,2,3]triazol-4-yl}-6-fluoro-1H-quinolin-2-one]
49 nM | 1.6 nM | O=C(c1ccc(-n2cc(-c3cc4cc(F)ccc4[nH]c3=O)nn2)cc1)N1CC[C@H](F)C1 [A265, 6-fluoro-3-{1-[4-((S)-3-fluoro-pyrrolidine-1-carbonyl)-phenyl]-1H-[1,2,3]triazol-4-yl}-1H-quinolin-2-one]
40 nM | 1.1 nM | O=C(c1ccc(-n2cc(-c3cc4cc(Cl)ccc4[nH]c3=O)nn2)cc1)N1CC[C@H](F)C1 [A266, 6-chloro-3-{1-[4-((S)-3-fluoro-pyrrolidine-1-carbonyl)-phenyl]-1H-[1,2,3]triazol-4-yl}-1H-quinolin-2-one]
